Where a name gives a salt, the structure may show the parent alone.
Legend:
[1] = test system: diaphragm tissue from fat-fed rats; assay: Pyruvate oxidation by diaphragm tissue from fat-fed rats (14C-pyruvate into CO2) in vitro; format: cell-based; settings: Rattus norvegicus, stimulation of pyruvate oxidation, concentration 0.5 mmolar
Experimental: Diaphragm tissue is obtained from rats fed on a high fat diet similar to 'Diet B' described by Zaragoza and Felber [Horm, Metab. Res., 2, 323 (1970)]. Pyruvate oxidation by such tissue is assessed by measurement of the rate of incorporation of carbon-14 from carbon-14-labelled pyruvate into carbon dioxide in vitro, as described by Bringolf [Eur. J. Biochem., 26, 360 (1972)]. The rate of pyruvate oxidation is depressed by 50-75% compared with that by diaphragm tissue from rats fed on a normal diet. When the compounds of the invention are added to the medium, they are found to stimulate pyruvate oxidation by diaphragm tissue from fat-fed rats in a dose dependent manner.

[2] = test system: pyruvate dehydrogenase enzyme (PDH); assay: Proportion of active pyruvate dehydrogenase (PDHa/PDHt) in hearts of fat-fed rats after dosing; format: in vivo, rat; settings: heart, after 1.5 hours
Experimental: Rats fed on a high fat diet as in the previous test, are treated either with placebo or with the compound of formula (I) or (II) by subcutaneous or intravenous injection or by oral administration. After 1.5 hours the rat hearts are removed and homogenized under conditions which minimize changes in the proportion of the pyruvate dehydrogenase enzyme (PDH) which is present in the active form, as described by Whitehouse and Randle [Biochem. J., 134, 651 (1973)]. The total amount of enzyme present (PDHt) and the amount which is present in the active form (PDHa) are assessed by a method similar to that described by Taylor et al. [J. Biol. Chem., 248, 73 (1973)]. The fat-feeding process is found to depress the ratio PDHa/PDHt from a normal value of about 0.7 to a value in the range from 0.05 to 0.2. Treatment of fat-fed rats with the compounds of formula (I) or (II) either parenterally or orally, increases this ratio in a dose dependent manner.
The increase in the PDHa/PDHt ratio affected by various of the compounds for the Examples at the dose level indicated is shown in the following Table: The compounds were administered by subcutaneous injection except where indicated by (0) where the compounds were administered orally.

heart = assay: Myocardial blood flow and metabolism in fasted, closed-chest, anaesthetized, electrically paced beagle dogs; format: in vivo; settings: 0.02 to 0.1 millimole/kg. intravenously
Experimental: The ability of compounds of formula (I) or (II) to reduce oxygen demand and affect the relative utilization of carbohydrate and lipid metabolites in the heart has been assessed by measuring the effect of the compounds on myocardial blood flow and metabolism in fasted, closed-chest, anaesthetized beagle dogs, with cardiac catherization to enable simultaneous sampling of coronary sinus and arterial blood to be carried out. Coronary sinus blood flow is measured by the hydrogen gas clearance technique described by Aukland et al. [Circulation Res., 14, 164 (1964)]. The heart is paced electrically at 155 beats/minute and recordings of hemodynamic parameters (blood pressure, left ventricular pressure and the first derivative of the latter) are made continuously. Control measurement of coronary blood flow are made and samples of blood taken at 40 minute intervals, both in an untreated animal and in the same animal dose with an infusion of isoprenaline (60 ng./kg./min.), which both stimulates cardiac contraction and increases plasma free fatty acid levels. The compound of formula (I) or (II) is then administered intravenously and measurements are made and samples taken again, 40 minutes and 90 minutes later. The blood samples from the artery and coronary sinus are analyzed for oxyhemoglobin, pyruvate and free fatty acid (FFA) content, differences between those of the arterial and coronary sinus blood, when multiplied by coronary blood flow, being a measure of oxygen consumption, pyruvate uptake and FFA uptake by the myocardium respectively.

[3] = 0.6 mMol/kg., subcutaneous injection
[4] = 0.3 mMol/kg., subcutaneous injection
[5] = 1.2 mMol/kg., subcutaneous injection
[6] = 0.6 mMol/kg., administered orally (0)
[7] = 0.3 mMol/kg., administered orally (0)

CC(C)(C)CCc1ccc(C(=O)C(=O)O)[nH]1 [Example 30]
activation at 500 µM [1]: 44%

CC(C)(C)Cc1ccc(C(=O)C(=O)O)[nH]1 [Example 28]
activation at 500 µM [1]: 88%

CCc1ccc(C(N)C(=O)O)[nH]1 (racemic) [Example 60, DL-2-(5-Ethyl-2-pyrrolyl)glycine]
activation at 500 µM [1]: 59%
PDHa/PDHt ratio [2, 3]: 0.16

CCCSc1ccc(C(=O)C(=O)O)[nH]1 [Example 40, 5-n-Propylthio-2-pyrrolylglyoxylic Acid]
activation at 500 µM [1]: 80%
PDHa/PDHt ratio [2, 4]: 0.27

O=C(O)C(=O)c1ccc(CCc2ccccc2)[nH]1 [Example 33]
activation at 500 µM [1]: 69%
PDHa/PDHt ratio [2, 4]: 0.13

O=C(O)C(=O)c1ccc(CC2CCCC2)[nH]1 [Example 36]
activation at 500 µM [1]: 154%
PDHa/PDHt ratio [2, 4]: 0.20

O=C(O)C(=O)c1ccc(CC2CC2)[nH]1 [Example 21, 5-Cyclopropylmethyl-2-pyrrolylglyoxylic Acid Sodium Salt]
activation at 500 µM [1]: 147%
PDHa/PDHt ratio [2, 4]: 0.44
PDHa/PDHt ratio [2, 3]: 0.71

O=C(O)C(=O)c1ccc(Cc2ccccc2)[nH]1 [Example 32]
activation at 500 µM [1]: 43%
PDHa/PDHt ratio [2, 3]: 0.16
PDHa/PDHt ratio [2, 5]: 0.83

O=C(O)C(=O)c1ccc(CC2CCCCC2)[nH]1 [Example 37]
activation at 500 µM [1]: 124%
PDHa/PDHt ratio [2, 4]: 0.12

CCCSc1ccc(C(=O)C(=O)OCC)[nH]1 [Example 39, 5-n-Propylthio-2-pyrrolylglyoxylic Acid Ethyl Ester]
activation at 500 µM [1]: 44%

CSc1ccc(C(=O)C(=O)O)[nH]1 [Example 34]
activation at 500 µM [1]: 53%
PDHa/PDHt ratio [2, 5]: 0.42

Cc1ccc(C(=O)C(=O)O)[nH]1 [Example 22]
activation at 500 µM [1]: 51%
PDHa/PDHt ratio [2, 5]: 0.84

CCCc1ccc(C(=O)C(=O)O)[nH]1 [Example 23]
activation at 500 µM [1]: 78%
PDHa/PDHt ratio [2, 3]: 0.66
PDHa/PDHt ratio [2, 5]: 0.82

CCCCCc1ccc(C(N)C(=O)O)[nH]1 (racemic) [Example 61, DL-2-(5-n-Pentyl-2-pyrrolyl)glycine]
activation at 500 µM [1]: 84%
PDHa/PDHt ratio [2, 6]: 0.13

O=C(O)C(=O)c1ccc(CCC2CCCCC2)[nH]1 [Example 31]
activation at 500 µM [1]: 125%
PDHa/PDHt ratio [2, 7]: 0.20

CCCCCc1ccc(C(=O)C(=O)O)[nH]1 [Example 27, 2-(5-n-amyl-2-pyrrolyl)glyoxylic acid]
activation at 500 µM [1]: 157%
PDHa/PDHt ratio [2, 3]: 0.13

CCOC(=O)C(=O)c1ccc(C(C)(C)C)[nH]1 [Example 2]
activation at 500 µM [1]: 50%

CCCCCCc1ccc(C(=O)C(=O)O)[nH]1 [Example 29, 2-(5-n-hexyl-2-pyrrolyl)glyoxylic acid]
activation at 500 µM [1]: 78%
PDHa/PDHt ratio [2, 7]: 0.40

CCOC(=O)C(=O)c1ccc(CC(C)C)[nH]1 [Example 9]
activation at 500 µM [1]: 65%

O=C(O)C(=O)c1ccc(CCC2C=CCC2)[nH]1 (centres unmarked) [Example 35]
activation at 500 µM [1]: 209%
PDHa/PDHt ratio [2, 4]: 0.18

CCOC(=O)C(=O)c1ccc(Cc2ccccc2)[nH]1 [Example 18]
activation at 500 µM [1]: 19%

CC(C)(C)c1ccc(C(=O)C(=O)O)[nH]1 [Example 26]
activation at 500 µM [1]: 31%

O=C(O)C(=O)c1ccc(CCC2CCCC2)[nH]1 [Example 38]
activation at 500 µM [1]: 80%
PDHa/PDHt ratio [2, 4]: 0.25

NC(=O)C(N)c1ccc(CC2CC2)[nH]1 (racemic) [Example 64, DL-2-(5-Cyclopropylmethyl-2-pyrrolyl)glycinamide]
activation at 500 µM [1]: 87%
effect on myocardial blood flow or any of the hemodynamic parameters measured (heart): no significant affect
myocardial glucose uptake (heart): increased
decrease of myocardial oxygen consumption (heart; in the presence of isoprenaline): about 20%
increase of myocardial pyruvate uptake (heart; presence and absence of isoprenaline, for at least 40 minutes after dosing): at least 2 fold
PDHa/PDHt ratio [2, 3]: 0.27

NC(C(=O)O)c1ccc(CC2CC2)[nH]1 (racemic) [Example 59, DL-2-(5-Cyclopropylmethyl-2-pyrrolyl)glycine]
activation at 500 µM [1]: 29%
PDHa/PDHt ratio [2, 6]: 0.21

CCCCc1ccc(C(=O)C(=O)OCC)[nH]1 [Example 6]
PDHa/PDHt ratio [2, 7]: 0.23

CCCCc1ccc(C(=O)C(=O)O)[nH]1 [Example 24, 2-(5-n-butyl-2-pyrrolyl)glyoxylic acid]
activation at 500 µM [1]: 140%
PDHa/PDHt ratio [2, 4]: 0.42

CCc1ccc(C(=O)C(=O)O)[nH]1 [Example 20, 5-Ethyl-2-Pyrrolylglyoxylic Acid]
activation at 500 µM [1]: 66%
PDHa/PDHt ratio [2, 5]: 0.85

CCOC(=O)C(=O)c1ccc(C)[nH]1 [Example 1, 5-Methyl-2-pyrrolylglyoxylic Acid Ethyl Ester]
activation at 500 µM [1]: 32%

CC(C)Cc1ccc(C(=O)C(=O)O)[nH]1 [Example 25]
activation at 500 µM [1]: 59%
PDHa/PDHt ratio [2, 3]: 0.45
PDHa/PDHt ratio [2, 5]: 1.00

— US4243672A, “5-Substituted 2-pyrroleglyoxylic acids, 5-substituted 2-pyrrolylglycines and derivatives thereof” (Pfizer Inc., priority 1978, dated 1981)
